Results on seven compounds are retold here after US7855192B2, “Macrolactams by engineered biosynthesis” (Kosan Biosciences, Inc., priority 2007, dated 2010).

The test system of one assay is Hsp70. The experiment in a line: Induction of Hsp70 in SKBr3 cells as marker of Hsp90 inhibition. It is filed as cell-based, human. As to conditions: SKBr3 cells continuously exposed to 1 μM test compound. The text has this: The activity of macrolactams of this invention as Hsp90 inhibitors was confirmed by monitoring the effect of exposure to them on an Hsp90 client protein and a protein induced upon Hsp90 inhibition. […]. The procedure used was that described in Munster et al., Cancer Research 2002, 62, 3132-3137.
[…]. Heat shock protein-70 (“Hsp70”), another protein that performs a chaperone function, is a protein that is induced upon inhibition of Hsp90 (Brodsky & Chiosis, Curr. Topics Med. Chem. 2006, 6 (11), 1215-1225). Thus, the induction of Hsp70 can be used as a marker for the inhibition of Hsp90. […]. GAPDH is an enzyme involved in glycolysis and is expressed constitutively in all cells and is a marker of choice as a loading control in Western Blotting experiments.)

The next assay has as its system MDA-468. The assay is described as follows: cells. As to conditions: read-out: Inhibitory Concentration IC50, NQO1 deficient cancer cells. How it is done: (§1) The ability of the macrolactams of this invention to inhibit the growth of cancer cells was evaluated using the procedure of Patel, supra. […] SKOV3 is a human ovarian cancer cell line. […] MV-4-11 is yet another human leukemia cell line (acute myeloid leukemia or AML). […] Where an assay was performed multiple times, the range of values measured is given.
(§2) As noted above, geldanamycin derivatives in the quinone oxidation state are dependent on the enzyme NQO1 to reduce them to their hydroquinone derivatives for enhanced activity as Hsp90 inhibitors. However, some cancer cells are deficient in NQO1 activity and thus unable to effect the quinone-to-hydroquinone conversion.

A further assay relates to BT-474. The experiment in a line: cells. The settings on record: Homo sapiens, BT-474, read-out: Inhibitory activity against cancer cells IC50. How it is done:
as §1

The next assay has as its system MCF-7. The experiment in a line: cells. The settings on record: Homo sapiens. The method, then:
as §1

The next assay concerns K-562. The assay is described as follows: cells. The settings on record: Homo sapiens, K562, read-out: Inhibitory activity against cancer cells IC50. The method, then:
as §1

Another assay has as its system MX-1. The assay is described as follows: cells. As to conditions: Homo sapiens, MX1, read-out: Inhibitory activity against cancer cells IC50. The method, then:
as §1

For the next assay, the system named is NCI-ADR. The assay is described as follows: cells. The settings on record: Homo sapiens, NCI/ADR-RES, read-out: Inhibitory activity against cancer cells IC50. The method, then: as §1
The test system of another assay is RPMI-8226. The experiment in a line: cells. The settings on record: Homo sapiens, RPMI-8226, read-out: Inhibitory activity against cancer cells IC50. How it is done:
as §1

The test system of another assay is SKOV3. The assay is described as follows: cells. As to conditions: Homo sapiens, SK-OV-3, read-out: Inhibitory activity against cancer cells IC50. The method, then: as §1
A further assay relates to SKBr3. The assay is described as follows: cells. As to conditions: Homo sapiens. How it is done: as §1
Assay [1] relates to SKBr3 and MCF7 cancer cells. As to conditions: with versus without dicoumarol (NQO1 inhibitor).
Another assay deals with NCI-H596. The experiment in a line: cells. The settings on record: Homo sapiens, NCI-H596, read-out: Inhibitory Concentration IC50, NQO1 deficient cancer cells. The method, then: as §1, §2
Another assay has as its system MV-4-11. The assay is described as follows: cells. As to conditions: Homo sapiens, MV4-11, read-out: Inhibitory activity against cancer cells IC50. How it is done: as §1
The subject of a further assay is COLO 205. The experiment in a line: cells. As to conditions: Homo sapiens, COLO 205, read-out: Inhibitory activity against cancer cells IC50. How it is done:
as §1

The subject of another assay is HT-29. The assay is described as follows: cells. The settings on record: Homo sapiens, HT-29, read-out: Inhibitory activity against cancer cells IC50. How it is done: as §1
The test system of the next assay is HCT-116. The experiment in a line: cells. As to conditions: Homo sapiens, HCT-116, read-out: Inhibitory activity against cancer cells IC50. How it is done: as §1
The mark [2] stands for this setting: MCF7, read-out: Inhibitory activity against cancer cells IC50.
The mark [3] stands for this setting: SK-BR-3, read-out: Inhibitory Activity IC50, no dicoumarol added.
The mark [4] stands for this setting: SK-BR-3, read-out: Inhibitory activity against cancer cells IC50.

Each structure is given as a SMILES string. pIC50: −log10 of the molar value. Read-outs that look alike come from different tables or passages of the source.

In the case of `C=CCNC1=C2C[C@@H](C)C[C@H](OC)[C@H](O)[C@@H](C)/C=C(\C)[C@H](OC(N)=O)[C@@H](OC)/C=C\C=C(/C)C(=O)NC(=CC1=O)C2=O` [Compound 17-AAG, 17-allylamino-17-demethoxygeldanamycin, reference compound], the “Induction of Hsp70, gel picture FIG. 5” value in the assay on Hsp70 is reported as “Hsp70 was induced”.

Regarding `CO[C@H]1C[C@H](C)Cc2cc(cc(Cl)c2O)NC(=O)/C(C)=C/CC[C@H](OC)[C@@H](OC(N)=O)/C(C)=C/[C@H](C)[C@H]1O` [III-a], the pIC50 in the assay with MDA-468 is 7.05; in the assay on BT-474, 7.24; with MCF-7 (setting [2]) it was 7.22 to 7.28; with K-562, 7.13; in the assay with MX-1, 7.38; in the assay with NCI-ADR, 5.85 to 6.19. Moreover, the pIC50 is 7.38 with RPMI-8226, 6.77 to 6.99 with SKOV3, 7.41 with SKBr3 (setting [3]) and 6.84 to 7.44 in the assay with SKBr3 (setting [4]). Moreover, in the assay on Hsp70, the “Induction of Hsp70, gel picture FIG. 5” value was “Hsp70 was induced”. For the same compound, in [1], the “Change of Hsp90 inhibitory activity in the presence of dicoumarol” value was “remained substantially unchanged”.

Turning to `COC1CC/C=C(\C)C(=O)Nc2cc(F)c(O)c(c2)C[C@@H](C)C[C@H](OC)[C@H](O)[C@@H](C)/C=C(\C)[C@@H]1OC(N)=O` (stereo partly drawn) [III-d], the pIC50 with NCI-H596 is 6.51; with MDA-468, 7.00; in the assay with BT-474, 7.10; in the assay with MCF-7 (MCF7, read-out: Inhibitory Activity IC50, dicoumarol added), 6.79; with MCF-7 (MCF7, read-out: Inhibitory Activity IC50, no dicoumarol added) it was 6.95; in the assay with MCF-7 (setting [2]) it was 6.80 to 7.14. In addition, the pIC50 in the assay with MV-4-11 is 7.49 to 7.51; in the assay with K-562, 6.54; in the assay on MX-1 it was 7.18; with NCI-ADR, 5.30 to 5.49; with RPMI-8226, 7.18; in the assay with COLO 205, 7.42. For the same compound, the pIC50 in the assay with SKOV3 was 6.63 to 6.64; with SKBr3 (SK-BR-3, read-out: Inhibitory Activity IC50, dicoumarol added), 7.16; in the assay with SKBr3 (setting [3]), 7.38; in the assay on SKBr3 (setting [4]), 7.10 to 7.47; in the assay on HT-29, 6.96; with HCT-116 it was 6.54 to 6.55. In the assay on Hsp70, the “Induction of Hsp70, gel picture FIG. 5” value was “Hsp70 was induced”. Besides, the “Change of Hsp90 inhibitory activity in the presence of dicoumarol” value in assay [1] is “remained substantially unchanged”.

For `CO[C@H]1C[C@H](C)Cc2cccc(c2)NC(=O)/C(C)=C/CC[C@H](OC)[C@@H](OC(N)=O)/C(C)=C/[C@H](C)[C@H]1O` [III-h], the pIC50 with MCF-7 (setting [2]) is 6.85 to 6.86; with COLO 205 it was 6.74; in the assay on SKOV3, 6.50; with SKBr3 (setting [4]), 6.96 to 7.05; in the assay with HT-29, 6.66; with HCT-116, 6.62.

For the compound `CO[C@H]1C[C@H](C)Cc2cc(ccc2O)NC(=O)/C(C)=C/CC[C@H](OC)[C@@H](OC(N)=O)/C(C)=C/[C@H](C)[C@H]1O` [III-i], the pIC50 is 6.22 with MCF-7 (setting [2]), 6.08 with SKBr3 (setting [4]) and 5.96 in the assay with HCT-116.

For `CO[C@H]1/C=C\C=C(/C)C(=O)Nc2ccc(O)c(c2)C[C@@H](C)C[C@H](OC)[C@H](O)[C@@H](C)/C=C(\C)[C@@H]1OC(N)=O` [IV-a], the pIC50 is 7.05 with SKBr3 (setting [4]) and 6.75 with HCT-116.

For `CO[C@H]1/C=C\C=C(/C)C(=O)Nc2cc(Cl)c(O)c(c2O)C[C@@H](C)C[C@H](OC)[C@H](O)[C@@H](C)/C=C(\C)[C@@H]1OC(N)=O` [IV-b], the pIC50 was 6.09 in the assay with NCI-H596; 6.35 in the assay with MDA-468; 6.85 in the assay on BT-474; 5.85 in the assay on K-562; 6.36 in the assay on MX-1; 5.00 with NCI-ADR. The pIC50 in the assay with RPMI-8226 was 6.62; with SKOV3, 6.44 to 6.47; in the assay on SKBr3 (setting [4]), 6.35 to 6.40; in the assay with HCT-116, 6.08.
